Source: article PMC7315563, “Bioactive fluorenes. Part III: 2,7-dichloro-9H-fluorene-based thiazolidinone and azetidinone analogues as anticancer and antimicrobial against multidrug resistant strains agents” (BMC Chemistry, 2020)
In brackets after ≈: the same amount, converted by molar mass.

Assays:
[1] = system: Escherichia coli (E. coli), multidrug resistant clinical isolate; test: agar well diffusion assay; format: cell-based; conditions: 24 h, 500 µg/mL of tested compound
How it was run: (§1)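 Multidrug-resistant clinical isolates swabbed on Mueller–Hinton agar at about 1–5 × 10^5 CFU/mL; 0.5 cm wells received 50 μL compound at 500 μg/mL in 1% DMSO. Incubation 24 h, 37 °C for bacteria and C. albicans, 25 °C for Aspergillus; inhibition zone diameter measured in mm.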

[2] = system: Klebsiella pneumoniae (K. pneumoniae), multidrug resistant clinical isolate; test: agar well diffusion assay; format: cell-based; conditions: 24 h, 500 µg/mL of tested compound
How it was run: as §1

[3] = system: Pseudomonas aeruginosa (P. aeruginosa), multidrug resistant clinical isolate; test: agar well diffusion assay; format: cell-based; conditions: 24 h, 500 µg/mL of tested compound
How it was run: as §1

[4] = system: Staphylococcus aureus (S. aureus), multidrug resistant clinical isolate; test: agar well diffusion assay; format: cell-based; conditions: Staphylococcus aureus; S. aureus; 500 µg/mL of tested compound; 24 h
How it was run: as §1

[5] = system: methicillin-resistant Staphylococcus aureus (MRSA); test: agar well diffusion assay; format: cell-based; conditions: Staphylococcus aureus, 500 µg/mL of tested compound, 24 h
How it was run: as §1

E. coli = test: MIC by broth microdilution method (resazurin end point); format: cell-based; conditions: Escherichia coli, 24 h at 37 °C
Description: (§2) Determination of Minimum inhibitory concentrations (MIC) of flourene derivatives was done using broth microdilution method. The procedure involved preparation of twofold dilutions of the fluorene derivatives ranging from (500–7.8 μg/mL) in sterile Mueller–Hinton broth inside the wells of 96-well microplate (Sarstedt, Germany). The inoculums of test strains prepared from fresh overnight cultures were adjusted to 0.5 McFarland standards, which equals to 1–2 × 10^8 CFU/mL for bacteria, the procedure was done according to CLSI 2012 [42]. […] For this assay the positive control agents were vancomycin (range: 0.7–50 μg/mL), gentamicin (range: 0.15–10 μg/mL) and the negative control was 1% DMSO.
(§3) For proper determination of the MIC end point resazurin dye has been used. A stock solution of resazurin sodium salt powder (Titan Biotech) was prepared at 0.02% (wt/vol) in distilled water, sterilized by filtration through a […] filter into a sterile light protected container then stored protected from light at 4 °C for up to 1 week, or at − […] for long term use, then 10–15% resazurin solution of the total volume in wells was added to each well and incubation for 1–4 h at 37 °C was done. A change in color from blue to pink indicates the growth of bacteria, and MIC was defined as the lowest concentration of the drug that prevented this change in color.

MRSA = test: as above; format: cell-based; conditions: Staphylococcus aureus, 24 h at 37 °C, read-out: MIC
Description: as §2, §3

S. aureus = test: as above; format: cell-based; conditions: Staphylococcus aureus; S. aureus; 24 h at 37 °C; read-out: MIC
Description: as §2, §3

[6] = system: MDA-MB-231 human breast cancer cells; test: cell viability assay (MTT); format: cell-based; conditions: 24 h; for viability at 1 µg/mL: read-out: Validity (%) for sample concentrations (µg/mL) 1; for viability at 10 µg/mL: read-out: Validity (%) for sample concentrations (µg/mL) 10; for viability at 31.25 µg/mL: read-out: Validity (%) for sample concentrations (µg/mL) 31.25; for viability at 62.5 µg/mL: read-out: Validity (%) for sample concentrations (µg/mL) 62.5; for viability at 125 µg/mL: read-out: Validity (%) for sample concentrations (µg/mL) 125; for viability at 250 µg/mL: read-out: Validity (%) for sample concentrations (µg/mL) 250; for viability at 500 µg/mL: read-out: Validity (%) for sample concentrations (µg/mL) 500
How it was run: (§4)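 MTT read-out (absorbance 570 nm) after 24 h compound exposure. Doses 0–500 µg/mL (0, 1, 10, 31.25, 62.5, 125, 250, 500). RPMI-1640/10% FBS, 5000 cells/well.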

[7] = system: WI-38 human normal fibroblast cells; test: cell viability assay (MTT); format: cell-based; conditions: 24 h; for viability at 31.25 µg/mL: read-out: Validity (%) for sample concentrations (µg/mL) 31.25; for viability at 62.5 µg/mL: 62.50 µg/mL, read-out: Validity (%) for sample concentrations (µg/mL) 62.50; for viability at 125 µg/mL: read-out: Validity (%) for sample concentrations (µg/mL) 125; for viability at 250 µg/mL: read-out: Validity (%) for sample concentrations (µg/mL) 250; for viability at 500 µg/mL: read-out: Validity (%) for sample concentrations (µg/mL) 500
How it was run: as §4

[8] = system: A549 human lung cancer cells; test: cell viability assay (MTT); format: cell-based; conditions: 24 h; for viability at 1 µg/mL: read-out: Validity (%) for sample concentrations (µg/mL) 1; for viability at 10 µg/mL: read-out: Validity (%) for sample concentrations (µg/mL) 10; for viability at 31.25 µg/mL: read-out: Validity (%) for sample concentrations (µg/mL) 31.25; for viability at 62.5 µg/mL: 62.50 µg/mL, read-out: Validity (%) for sample concentrations (µg/mL) 62.50; for viability at 125 µg/mL: read-out: Validity (%) for sample concentrations (µg/mL) 125; for viability at 250 µg/mL: read-out: Validity (%) for sample concentrations (µg/mL) 250; for viability at 500 µg/mL: read-out: Validity (%) for sample concentrations (µg/mL) 500; for viability at 1000 µg/mL: read-out: Validity (%) for sample concentrations (µg/mL) 1000
[9] = system: Acinetobacter baumannii (A. baumannii), multidrug resistant clinical isolate; test: agar well diffusion assay; format: cell-based; conditions: 500 µg/mL of tested compound, 24 h
How it was run: as §1

P. aeruginosa = test: MIC by broth microdilution method (resazurin end point); format: cell-based; conditions: Pseudomonas aeruginosa, 24 h at 37 °C
Description: as §2, §3

Structure (SMILES) | zone of inhibition at 500 µg/mL [1] [mm] | zone of inhibition at 500 µg/mL [4] [mm] | MIC (E. coli) [µg/mL] | viability at 1 µg/mL [6] [%] | viability at 10 µg/mL [6] [%] | viability at 31.25 µg/mL [6] [%] | viability at 62.5 µg/mL [6] [%] | viability at 125 µg/mL [6] [%] | viability at 250 µg/mL [6] [%] | viability at 500 µg/mL [6] [%] | IC50 [6] [µg/mL] | viability at 31.25 µg/mL [7] [%] | viability at 62.5 µg/mL [7] [%] | viability at 125 µg/mL [7] [%] | viability at 250 µg/mL [7] [%] | viability at 500 µg/mL [7] [%] | IC50 [7] [µg/mL] | viability at 1 µg/mL [8] [%] | viability at 10 µg/mL [8] [%] | viability at 31.25 µg/mL [8] [%] | also measured
COc1cc(C2C(Cl)C(=O)N2c2nc(-c3cc(Cl)cc4c3-c3ccc(Cl)cc3C4)cs2)ccc1O (stereo not drawn) [6h, 3-chloro-1-(4-(2,7-dichloro-9H-fluoren-4-yl)thiazol-2-yl)-4-(4-hydroxy-3-methoxyphenyl)azetidin-2-one] | 22 | 12 | 31.2 (≈ 57.5 µM) | 94.3 | 90.4 | 85.8 | 77.8 | 73.6 | 68.5 | 65.8 | > 500 | 85 | 70.6 | 60.4 | 51.8 | 49.4 | 487 (≈ 895 µM) | 89.5 | 80.9 | 79 | zone of inhibition at 500 µg/mL [2]: 3 mm; zone of inhibition at 500 µg/mL [3]: 8 mm; zone of inhibition at 500 µg/mL [5]: 15 mm; MIC (MRSA): 31.2 µg/mL (≈ 57.5 µM); MIC (S. aureus): 62.5 µg/mL (≈ 115 µM); viability at 62.5 µg/mL [8]: 75.8%; viability at 125 µg/mL [8]: 63.5%; viability at 250 µg/mL [8]: 37.9%; viability at 500 µg/mL [8]: 33%; viability at 1000 µg/mL [8]: 30.3%; IC50 [8]: 192 µg/mL (≈ 353 µM); melting point: 95 to 97 °C
O=C1C(Cl)C(c2ccco2)N1c1nc(-c2cc(Cl)cc3c2-c2ccc(Cl)cc2C3)cs1 (stereo not drawn) [6j, 3-Chloro-1-(4-(2,7-dichloro-9H-fluoren-4-yl)thiazol-2-yl)-4-(furan-2-yl)azetidin-2-one] | 20 | 9 | 31.2 (≈ 64.1 µM) | 96.3 | 92.9 | 75.6 | 73.1 | 69 | 53.2 | 50.6 | 508 (≈ 1040 µM) | 87.3 | 81.4 | 66.3 | 60.9 | 37.2 | 356 (≈ 730 µM) | 95.6 | 87.8 | 76.6 | zone of inhibition at 500 µg/mL [9]: 6 mm; viability at 62.5 µg/mL [8]: 68.2%; viability at 125 µg/mL [8]: 54%; viability at 250 µg/mL [8]: 31.3%; viability at 500 µg/mL [8]: 29.2%; viability at 1000 µg/mL [8]: 28.3%; IC50 [8]: 175 µg/mL (≈ 359 µM); melting point: 95 to 98 °C
O=C1C(Cl)C(c2ccc[nH]2)N1c1nc(-c2cc(Cl)cc3c2-c2ccc(Cl)cc2C3)cs1 (stereo not drawn) [6l, 3-Chloro-1-(4-(2,7-dichloro-9H-fluoren-4-yl)thiazol-2-yl)-4-(1H-pyrrol-2-yl)azetidin-2-one] | 22 | 15 | 31.2 (≈ 64.2 µM) | 96.9 | 90.4 | 85.5 | 71.9 | 69.8 | 66.7 | 60.9 | > 500 | 94 | 76.4 | 70.2 | 52.5 | 39 | 350 (≈ 719 µM) | 85 | 72.2 | 58.1 | zone of inhibition at 500 µg/mL [3]: 8 mm; zone of inhibition at 500 µg/mL [5]: 15 mm; MIC (MRSA): 31.2 µg/mL (≈ 64.2 µM); MIC (P. aeruginosa): 125 µg/mL (≈ 257 µM); MIC (S. aureus): 31.2 µg/mL (≈ 64.2 µM); viability at 62.5 µg/mL [8]: 53.6%; viability at 125 µg/mL [8]: 43.1%; viability at 250 µg/mL [8]: 34%; viability at 500 µg/mL [8]: 30.3%; viability at 1000 µg/mL [8]: 27.9%; IC50 [8]: 95 µg/mL (≈ 195 µM); melting point: 105 to 107 °C
O=C1C(Cl)C(c2ccnc3ccccc23)N1c1nc(-c2cc(Cl)cc3c2-c2ccc(Cl)cc2C3)cs1 (stereo not drawn) [6n, 3-chloro-1-(4-(2,7-dichloro-9H-fluoren-4-yl)thiazol-2-yl)-4-(quinolin-4-yl)azetidin-2-one] | 19 | 9 | 31.2 (≈ 56.9 µM) | 96.2 | 89.5 | 86.8 | 81.3 | 73.2 | 67.1 | 59.2 | > 500 | 98.6 | 85.9 | 53.2 | 43.3 | 39.8 | 212 (≈ 386 µM) | 93.3 | 83.6 | 67.9 | zone of inhibition at 500 µg/mL [9]: 5 mm; zone of inhibition at 500 µg/mL [2]: 5 mm; zone of inhibition at 500 µg/mL [3]: 13 mm; MIC (P. aeruginosa): 62.5 µg/mL (≈ 114 µM); viability at 62.5 µg/mL [8]: 64.2%; viability at 125 µg/mL [8]: 52.7%; viability at 250 µg/mL [8]: 43.2%; viability at 500 µg/mL [8]: 39.1%; viability at 1000 µg/mL [8]: 36.3%; IC50 [8]: 159 µg/mL (≈ 290 µM); melting point: 175 to 177 °C
